# Values of other authors, collected in patent US20140228595A1, “PROCESSES FOR PRODUCING HEXANEDIOL (HDO), HEXAMETHYLENEDIAMINE (HMD), ADIPONITRILE (ADN), ADIPAMIDE (ADM) AND DERIVATIVES THEREOF” (BioAmber S.A.S., priority 2011, published 2014).
compound,measurement,setting,value
"O=C(O)CCCCC(=O)O [AA, adipic acid]",pKa1,"Table 1, Run 1",4.43
same,pKa of the second acid group of AA,second acid group,5.1
